According to patent publication US4610977A, “N-alkyl and N-benzyl adriamycin derivatives” (The University of Tennessee Research Corporation, priority 1985, dated 1986):
Read-outs that look alike come from different tables or passages of the source.

Experiments:
murine L1210 leukemia = experiment: In vivo antitumor activity against murine L1210 leukemia in B6D2F1 male mice; conditions: L1210, qd 1-4; for % ILS (percent median increase in life span relative to untreated controls): at optimal dose (Examples 1/2/3: 12.5/20.0/25.0, adriamycin 3.0 mg/kg); for % ILS (percent median increase in life span relative to untreated controls) / LTS (tumor free long term survivors): ip; for LTS (tumor free long term survivors): at optimal dose, day of sacrifice: Examples 1-3 42
Text: (§1) The in vivo evaluations were made by preparing a 0.01 to 0.4% by weight solution of the active agent in an aqueous solution of polyethoxylated castor oil (10% by volume) and ethanol (10% by volume) as a carrier and injecting the dosage intraperitoneally. The evaluations were made of the antitumor activity against the murine P 388 and L1210 leukemias in B6D2F1 male mice essentially according to standard National Cancer Institute protocols as set forth by Geran et al., Cancer Chemotherap. Rep., Part 3, Volume 3, pages 1 et seq.

[1] = as above; conditions: mouse, in vivo, ip
Text: as §1

malignant tumors = conditions: cited from earlier work; for Clinical antitumor effectiveness: certain malignant tumors, e.g. induction of remission in acute leukemia; for Toxicities accompanying chemotherapy: limit effectiveness, particularly long-term use
in vivo = conditions: mouse, ip
Text: as §1

CCRF-CEM cell line = experiment: Growth inhibition of CCRF-CEM cells in culture, 48 hours continuous drug exposure; assay type: cell-based, child with lymphoblastic leukemia; conditions: Homo sapiens
Procedure: The toxicity and therapeutic effectiveness of the new compounds and active agents of the present invention are shown by in vitro assays and by in vivo evaluations in mice. The in vitro assays measure the growth inhibiting activity of the materials against the CCRF-CEM cell line in culture. The cell line was derived from the peripheral blood of a child with lymphoblastic leukemia as described by Foley et al., Cancer, Volume 18, page 522 et seq. (1965), and the assays were carried out by the procedure of Foley and Lazarus, Biochem. Pharmacol., Vol. 16, pages 659 et seq. (1967), the compounds being dissolved in dimethyl sulfoxide and diluted into cell culture media to give a final dimethyl sulfoxide concentration of 1%, the results being reported in terms of the dose in micromoles per liter required to inhibit growth of the cultures by 50% relative to control cultures to which no drug had been added (ID50).
^1 Concentration required to inhibit growth of cultures by 50%
relative to untreated controls; 48 hours continuous drug exposure.

[2] = 48 hours continuous drug exposure, final DMSO 1%, read-out: ID50 (concentration required to inhibit growth of cultures by 50% relative to untreated controls)
[3] = 48 hours continuous drug exposure, read-out: ID50, corresponding compounds having different N-substitution

| SMILES | % ILS (percent median increase in life span relative to untreated controls) (murine L1210 leukemia) | LTS (tumor free long term survivors) (murine L1210 leukemia) | MTD [1] | MTD (in vivo) | IC50 (CCRF-CEM cell line; [3]) | further results |
| --- | --- | --- | --- | --- | --- | --- |
| COc1cccc2c1C(=O)c1c(O)c3c(c(O)c1C2=O)C[C@@](O)(C(=O)CO)C[C@@H]3O[C@H]1C[C@H](N)[C@H](O)[C@H](C)O1 [Adriamycin] | +90% | 0/7 | 3 mg/kg | – | – | All animals dead by day (murine L1210 leukemia; adriamycin 3.0 mg/kg, footnote 4): ≤ 22 days; Clinical antitumor effectiveness (malignant tumors): effective clinically against certain malignant tumors; Clinical efficacy against certain solid tumors (malignant tumors; certain solid tumors): has shown clinical efficacy against certain solid tumors; Toxicities accompanying chemotherapy (malignant tumors): a variety of toxicities |
| CCCCN(CCCC)[C@H]1C[C@H](O[C@H]2C[C@](O)(C(=O)CO)Cc3c(O)c4c(c(O)c32)C(=O)c2c(OC)cccc2C4=O)O[C@@H](C)[C@H]1O [Di-n-butyl] | – | – | – | 25 mg/kg | – | – |
| CCCN(CCC)[C@H]1C[C@H](O[C@H]2C[C@](O)(C(=O)CO)Cc3c(O)c4c(c(O)c32)C(=O)c2c(OC)cccc2C4=O)O[C@@H](C)[C@H]1O [Di-n-propyl] | – | – | – | 20 mg/kg | – | – |
| CCCCC(=O)OCC(=O)[C@]1(O)Cc2c(O)c3c(c(O)c2[C@@H](O[C@H]2C[C@H](NCc4ccccc4)[C@H](O)[C@H](C)O2)C1)C(=O)c1c(OC)cccc1C3=O [Example 1, N-Benzyladriamycin-14-valerate] | > +350% | 5/7 | 12.5 mg/kg | 10 mg/kg | – | IC50 (CCRF-CEM cell line; [2]): 1000 nM |
| CCCCC(=O)OCC(=O)[C@]1(O)Cc2c(O)c3c(c(O)c2[C@@H](O[C@H]2C[C@H](N(CCC)CCC)[C@H](O)[C@H](C)O2)C1)C(=O)c1c(OC)cccc1C3=O [Example 2, N,N-Di(n-propyl)adriamycin-14-valerate] | > +350% | 4/7 | 20 mg/kg | 20 mg/kg | – | IC50 (CCRF-CEM cell line; [2]): 1900 nM |
| CCCCC(=O)OCC(=O)[C@]1(O)Cc2c(O)c3c(c(O)c2[C@@H](O[C@H]2C[C@H](N(CCCC)CCCC)[C@H](O)[C@H](C)O2)C1)C(=O)c1c(OC)cccc1C3=O [Example 3, N,N-Di(n-butyl)adriamycin-14-valerate] | > +350% | 5/7 | 25 mg/kg | 30 mg/kg | – | IC50 (CCRF-CEM cell line; [2]): 2100 nM |
| COc1cccc2c1C(=O)c1c(O)c3c(c(O)c1C2=O)C[C@@](O)(C(=O)CO)C[C@@H]3O[C@H]1C[C@H](NCc2ccccc2)[C@H](O)[C@H](C)O1 [Mono-N--benzyl] | – | – | – | 5 mg/kg | – | – |
| COc1cccc2c1C(=O)c1c(O)c3c(c(O)c1C2=O)C[C@@](O)(C(C)=O)C[C@@H]3O[C@H]1C[C@H](N)[C@H](O)[C@H](C)O1 [daunomycin] | – | – | – | – | – | Clinical antitumor effectiveness (malignant tumors): effective clinically against certain malignant tumors; Toxicities accompanying chemotherapy (malignant tumors): a variety of toxicities |
| CCCCCCN(CCCCCC)[C@H]1C[C@H](O[C@H]2C[C@](O)(C(=O)COC(=O)CCCC)Cc3c(O)c4c(c(O)c32)C(=O)c2c(OC)cccc2C4=O)O[C@@H](C)[C@H]1O [di-n-hexyl] | – | – | – | 40 mg/kg | 2500 nM | – |
| CCCCC(=O)OCC(=O)[C@]1(O)Cc2c(O)c3c(c(O)c2[C@@H](O[C@H]2C[C@H](N(Cc4ccccc4)Cc4ccccc4)[C@H](O)[C@H](C)O2)C1)C(=O)c1c(OC)cccc1C3=O [dibenzyl] | – | – | – | 20 mg/kg | – | IC50 (CCRF-CEM cell line; 48 h, read-out: ID50, corresponding compounds having different N-substitution): > 5000 nM |
| CCCCC(=O)OCC(=O)[C@]1(O)Cc2c(O)c3c(c(O)c2[C@@H](O[C@H]2C[C@H](N(CC)CC)[C@H](O)[C@H](C)O2)C1)C(=O)c1c(OC)cccc1C3=O [diethyl] | – | – | – | 8 mg/kg | 300 nM | – |
| CCCCC(=O)OCC(=O)[C@]1(O)Cc2c(O)c3c(c(O)c2[C@@H](O[C@H]2C[C@H](N(C)C)[C@H](O)[C@H](C)O2)C1)C(=O)c1c(OC)cccc1C3=O [dimethyl] | – | – | – | – | 20 nM | – |
| CCCCC(=O)OCC(=O)[C@]1(O)Cc2c(O)c3c(c(O)c2[C@@H](O[C@H]2C[C@H](NCCC)[C@H](O)[C@H](C)O2)C1)C(=O)c1c(OC)cccc1C3=O [mono-n-propyl, N mono(n-propyl) adriamycin-14-valerate] | – | – | – | 15 mg/kg | 170 nM | – |
